Assay results reported in ChEMBL document CHEMBL5360542, “Current development of β-carboline derived potential antimalarial scaffolds” (Eur J Med Chem, 2023).

Columns and labels:
Type in all cases: functional, organism-based
Plasmodium falciparum [1] = assay: Antiplasmodial activity against chloroquine-resistant erythrocyte stage Plasmodium falciparum Dd2 assessed as inhibition of parasite growth incubated for 3 days by ELISA; conditions: 72 h
Plasmodium falciparum [2] = assay: Antiplasmodial activity against chloroquine-sensitive erythrocyte stage Plasmodium falciparum 3D7 assessed as inhibition of parasite growth incubated for 3 days by ELISA; conditions: 3D7, Erythrocyte, 72 h
Plasmodium falciparum [3] = assay: Antimalarial activity against Plasmodium falciparum 3D7 infected in erythrocytes assessed as inhibition of parasite growth incubated for 48 hrs by SYBR-Green I fluorescence-based assay; conditions: 3D7, Erythrocyte
Plasmodium falciparum [4] = assay: Antimalarial activity against Plasmodium falciparum INDO infected in erythrocytes assessed as inhibition of parasite growth incubated for 48 hrs by SYBR-Green I fluorescence-based assay; conditions: Erythrocyte
Plasmodium falciparum [5] = assay: Antimalarial activity against chloroquine-resistant Plasmodium falciparum K1 infected in human A positive erythrocytes assessed as reduction in parasite growth incubated for 24 hrs by [3H]hypoxanthine based scintillation counting analysis; conditions: K1, Erythrocyte
Plasmodium falciparum [6] = assay: Antimalarial activity against Plasmodium falciparum 3D7 infected in human A positive erythrocytes assessed as reduction in parasite growth incubated for 24 hrs by [3H]hypoxanthine based scintillation counting analysis; conditions: 3D7, Erythrocyte
Plasmodium falciparum [7] = assay: Antimalarial activity against chloroquine-sensitive Plasmodium falciparum 3D7 assessed as reduction in parasite growth

| Structure (SMILES) | IC50 (Plasmodium falciparum [1]) | IC50 (Plasmodium falciparum [2]) | IC50 (Plasmodium falciparum [6]) | further results |
| --- | --- | --- | --- | --- |
| Cc1nccc2c1[nH]c1cc(OCCNC(=O)/C=C/c3ccccc3)ccc12 | 4700 nM | 980 nM | – | – |
| C/C(=C\c1ccccc1)C(=O)NCCOc1ccc2c(c1)[nH]c1c(C)nccc12 | 19500 nM | 6780 nM | – | – |
| CCOC(=O)c1cc2c([nH]c3ccccc32)c(-c2ccc(/N=C(/Nc3ccc(OC(F)(F)F)cc3)NC3CC3)cc2)n1 | – | – | – | IC50 (Plasmodium falciparum [3]): 1000 nM; IC50 (Plasmodium falciparum [4]): 770 nM |
| COc1ccc(/C=C/C(=O)NCCOc2ccc3c(c2)[nH]c2c(C)nccc23)cc1 | 1090 nM | 210 nM | – | – |
| Cc1nccc2c1[nH]c1cc(OCCNC(=O)/C=C/c3cccc(Br)c3)ccc12 | 480 nM | 370 nM | – | – |
| Clc1ccc2[nH]c3c(N4CCC(N5CCCCC5)CC4)nccc3c2c1 | – | – | 10200 nM | IC50 (Plasmodium falciparum [5]): 2660 nM |
| C=C(C#N)C1OC(C)=Cn2c3ccccc3c3cc(C(=O)OC)nc1c32 (centres undefined) | – | – | – | IC50 (Plasmodium falciparum [7]): > 5000 nM |
| CCN(CC)CCCNc1nccc2c1[nH]c1ccc(Cl)cc12 | – | – | 150 nM | – |
| Nc1nccc(-c2nccc3c2[nH]c2ccccc23)n1 [ANNOMONTINE] | – | – | – | IC50 (Plasmodium falciparum [3]): 3440 nM; IC50 (Plasmodium falciparum [4]): 3060 nM |
| Clc1ccc2[nH]c3c(N4CCC(N5CCCC5)CC4)nccc3c2c1 | – | – | 930 nM | IC50 (Plasmodium falciparum [5]): 1030 nM |
| COc1ccc2c3ccnc(C)c3n(CCNC(=O)/C=C/c3ccc(Cl)cc3)c2c1 | 170 nM | 40 nM | – | – |
| CCOC(=O)c1cc2c([nH]c3ccccc32)c(-c2ccc(NS(=O)(=O)c3ccc(C)cc3)cc2)n1 | – | – | – | IC50 (Plasmodium falciparum [3]): 3700 nM; IC50 (Plasmodium falciparum [4]): 1900 nM |
| Cc1nccc2c1[nH]c1cc(OCCNC(=O)/C=C/c3cccc(F)c3)ccc12 | 5010 nM | 2750 nM | – | – |
| Clc1ccc2[nH]c3c(NCCCn4ccnc4)nccc3c2c1 | – | – | 450 nM | IC50 (Plasmodium falciparum [5]): 920 nM |
| COc1ccc2c3ccnc(C)c3n(CCNC(=O)/C=C/c3ccc(F)cc3)c2c1 | 330 nM | 90 nM | – | – |
| CCOC(=O)c1cc2c([nH]c3ccccc32)c(-c2ccc(/N=C(/Nc3ccc(OC)cc3)NC3CC3)cc2)n1 | – | – | – | IC50 (Plasmodium falciparum [3]): 7600 nM; IC50 (Plasmodium falciparum [4]): 1200 nM |
| CCOC(=O)c1cc2c([nH]c3ccccc32)c(-c2ccc(NC(=S)Nc3ccccc3)cc2)n1 | – | – | – | IC50 (Plasmodium falciparum [3]): 6400 nM; IC50 (Plasmodium falciparum [4]): 640 nM |
| Cc1nccc2c1[nH]c1cc(OCCNC(=O)/C=C/c3ccc(F)cc3)ccc12 | 690 nM | 150 nM | – | – |

| Structure (SMILES) | IC50 (Plasmodium falciparum [1]) | IC50 (Plasmodium falciparum [2]) | IC50 (Plasmodium falciparum [6]) | further results |
| --- | --- | --- | --- | --- |
| CCN(CC)C1CCN(c2nccc3c2[nH]c2ccc(Cl)cc23)CC1 | – | – | 1600 nM | IC50 (Plasmodium falciparum [5]): 1180 nM |
| Clc1ccc2[nH]c3c(NCCN4CCOCC4)nccc3c2c1 | – | – | 2350 nM | IC50 (Plasmodium falciparum [5]): 4950 nM |
| C/C=C\CC1OC(C)=Cn2c3ccccc3c3cc(C(=O)OC)nc1c32 (centres undefined) | – | – | – | IC50 (Plasmodium falciparum [7]): > 5000 nM |
| COc1ccc2c3ccnc(C)c3n(CCNC(=O)/C=C/c3ccccc3)c2c1 | 1110 nM | 490 nM | – | – |
| CCN(CC)CCCNc1nccc2c1[nH]c1ccc(F)cc12 | – | – | 600 nM | IC50 (Plasmodium falciparum [5]): 300 nM |
| COC(=O)c1cc2c3cc(Br)ccc3n3c2c(n1)COC(C)=C3 | – | – | – | IC50 (Plasmodium falciparum [7]): > 5000 nM |
| COc1ccc2c3ccnc(C)c3n(CCNC(=O)/C=C/c3cccc(Br)c3)c2c1 | 410 nM | 70 nM | – | – |
| CCN(CC)CCCC(C)Nc1nccc2c1[nH]c1ccc(F)cc12 (centres undefined) | – | – | 370 nM | IC50 (Plasmodium falciparum [5]): 1200 nM |
| Cc1nccc2c1[nH]c1cc(OCCNC(=O)/C=C/c3ccccc3F)ccc12 | 3920 nM | 930 nM | – | – |
| COc1ccc2c3ccnc(C)c3n(CCNC(=O)/C=C/c3cccc(F)c3)c2c1 | 780 nM | 70 nM | – | – |
| COc1ccc(/C=C/C(=O)NCCn2c3cc(OC)ccc3c3ccnc(C)c32)cc1 | 490 nM | 260 nM | – | – |
| CCN(CC)CCCC(C)Nc1nccc2c1[nH]c1ccc(Cl)cc12 (centres undefined) | – | – | 170 nM | IC50 (Plasmodium falciparum [5]): 240 nM |
| Fc1ccc2[nH]c3c(NCCCn4ccnc4)nccc3c2c1 | – | – | 200 nM | IC50 (Plasmodium falciparum [5]): 410 nM |
| C=C(C)CC1OC(C)=Cn2c3ccccc3c3cc(C(=O)OC)nc1c32 (centres undefined) | – | – | – | IC50 (Plasmodium falciparum [7]): > 5000 nM |
| COC(=O)c1cc2c3ccccc3n3c2c(n1)COC(C)=C3 | – | – | – | IC50 (Plasmodium falciparum [7]): > 5000 nM |
| Cc1nccc2c1[nH]c1cc(OCCNC(=O)/C=C/c3ccc(Cl)cc3)ccc12 | 400 nM | 320 nM | – | – |
| Clc1ccc2[nH]c3c(N4CCC(N5CCOCC5)CC4)nccc3c2c1 | – | – | 5320 nM | IC50 (Plasmodium falciparum [5]): 1900 nM |
